Measurements published in ChEMBL document CHEMBL1151425, “RNAIII-inhibiting peptide affects biofilm formation in a rat model of staphylococcal ureteral stent infection” (Antimicrob Agents Chemother, 2007).

Experiments:
[1] = system: Staphylococcus aureus; assay: Antimicrobial activity against Staphylococcus aureus Smith diffuse infected in Wistar rat ureteral stent infection model assessed as bacterial count on ureteral stent at 10 mg/kg, ip after 48 hrs; assay type: functional; conditions: route intraperitoneal
[2] = system: Staphylococcus aureus; assay: Antimicrobial activity against Staphylococcus aureus Smith diffuse infected in Wistar rat ureteral stent infection model assessed as bacterial count in urine at 10 mg/kg, ip after 48 hrs; assay type: functional; conditions: route intraperitoneal
[3] = system: Rattus norvegicus; assay: Toxicity in Staphylococcus aureus Smith diffuse infected Wistar rat assessed as mortality at 10 mg/kg, ip; assay type: organism-based; set-up: dose 10 mg/kg, route intraperitoneal; conditions: in vivo
[4] = species: Rattus norvegicus; assay: Toxicity in Staphylococcus aureus Smith diffuse infected Wistar rat containing 1 ug/ml drug-coated ureteral stent assessed as mortality; assay type: organism-based; conditions: in vivo, other
[5] = system: Rattus norvegicus; assay: Toxicity in Staphylococcus aureus Smith diffuse infected Wistar rat assessed as drug-related adverse effects at 10 mg/kg, ip; assay type: organism-based; set-up: dose 10 mg/kg, route intraperitoneal; conditions: in vivo
[6] = species: Rattus norvegicus; assay: Toxicity in Staphylococcus aureus Smith diffuse infected Wistar rat containing 1 ug/ml drug-coated ureteral stent assessed as drug-related adverse effects; assay type: organism-based; conditions: in vivo, other
[7] = system: Rattus norvegicus; assay: Toxicity in Staphylococcus aureus Smith diffuse infected Wistar rat containing 1 ug/ml drug-coated ureteral stent assessed as mortality in presence of 10 mg/kg, ip teicoplanin; assay type: organism-based; set-up: dose 10 mg/kg, route intraperitoneal; conditions: in vivo
[8] = system: Rattus norvegicus; assay: Toxicity in Staphylococcus aureus Smith diffuse infected Wistar rat containing 1 ug/ml drug-coated ureteral stent assessed as drug-related adverse effects in presence of 10 mg/kg, ip teicoplanin; assay type: organism-based; set-up: dose 10 mg/kg, route intraperitoneal; conditions: in vivo
[9] = system: Staphylococcus aureus; assay: Antimicrobial activity against Staphylococcus aureus Smith diffuse infected in Wistar rat ureteral stent infection model containing 1 ug/ml drug-coated stent assessed as bacterial count on ureteral stent after 48 hrs; assay type: functional
[10] = system: Staphylococcus aureus; assay: Antimicrobial activity against Staphylococcus aureus Smith diffuse infected in Wistar rat ureteral stent infection model containing 1 ug/ml drug-coated stent assessed as bacterial count in urine after 48 hrs; assay type: functional
[11] = system: Staphylococcus aureus; assay: Potentiation of teicoplanin-induced antimicrobial activity against Staphylococcus aureus Smith diffuse infected in Wistar rat ureteral stent infection model containing drug-coated stent assessed as bacterial count on stent after 48 hrs; assay type: functional
[12] = system: Staphylococcus aureus; assay: Potentiation of teicoplanin-induced antimicrobial activity against Staphylococcus aureus Smith diffuse infected in Wistar rat ureteral stent infection model containing drug-coated stent assessed as bacterial count in urine after 48 hrs; assay type: functional
[13] = system: Staphylococcus aureus; assay: Antimicrobial activity against Staphylococcus aureus Smith diffuse infected in Wistar rat ureteral stent infection model; assay type: functional

| Compound | CFU [1] [×10³ /ml] | CFU [2] [×10⁴ /ml] | Activity [3] | Activity [4] | Activity [5] | Activity [6] | Activity [7] | Activity [8] | CFU [9] [×10³ /ml] | CFU [10] [×10⁴ /ml] | CFU [11] [mL⁻¹] | CFU [12] [mL⁻¹] | MIC [13] [µg/mL] |
| --- | --- | --- | --- | --- | --- | --- | --- | --- | --- | --- | --- | --- | --- |
| CC(=O)N[C@@H]1[C@H](Oc2c3cc4cc2Oc2ccc(cc2Cl)[C@@H](O[C@@H]2O[C@@H](CO)[C@@H](O)[C@H](O)[C@@H]2NC(C)=O)[C@@H]2NC(=O)[C@H](NC(=O)[C@@H]4NC(=O)[C@H]4NC(=O)[C@@H](Cc5ccc(c(Cl)c5)O3)NC(=O)[C@H](N)c3ccc(O)c(c3)Oc3cc(O)cc4c3)c3ccc(O)c(c3)-c3c(O[C@H]4O[C@H](CO)[C@@H](O)[C@@H](O)[C@@H]4O)cc(O)cc3[C@@H](C(=O)O)NC2=O)O[C@@H](CO)[C@@H](O)[C@@H]1O | 3.8 | 2.9 | Non-toxic | Non-toxic | Non-toxic | Non-toxic | Non-toxic | Non-toxic |  |  |  |  |  |
| H-YSPWTNF-NH2 |  |  |  | Non-toxic | Non-toxic | Non-toxic | Non-toxic | Non-toxic | 67 | 4 | <10 | <10 | 1 |
